Results published in PubChem BioAssay AID2060509 (Molecular Pharmacology Branch, DTP, NCI, 2025).

System: 485176-168-R4-J1-PDC spheroids with HUVEC/MSC, viability
Assay: Anticancer human tumor 485176-168-R4-J1-PDC patient-derived pancreatic adenocarcinoma cell line growth inhibition [GQUAD]
Conditions: for IC50: curve of first compound; for viability, T/C: stronger effect = lower value
Method in brief: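 Viability of tumor cells grown as complex spheroids with endothelial and stromal cells, exposed to drug combinations. Top concentration at or near clinical Cmax (else 10 microM), diluted in half-log increments.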

[1] = second compound 0.0316 µM, first compound 0.0316 µM
[2] = second compound 0.0316 µM, first compound 0.316 µM
[3] = second compound 0.1 µM, first compound 0.0316 µM
[4] = second compound 0.1 µM, first compound 0.316 µM
[5] = second compound 0.316 µM, first compound 0.0316 µM
[6] = second compound 0.316 µM, first compound 0.316 µM
[7] = second compound 1 µM, first compound 0.0316 µM
[8] = second compound 1 µM, first compound 0.316 µM
[9] = second compound 3.16 µM, first compound 0.0316 µM
[10] = second compound 3.16 µM, first compound 0.316 µM
[11] = second compound 10 µM, first compound 0.0316 µM
[12] = second compound 10 µM, first compound 0.316 µM
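Note: spheroids exposed to compounds for seven days before readout.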
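Throughout, for viability, T/C: percent viability relative to DMSO vehicle control wells as 100%.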

Structure (SMILES): COc1cc(C2c3cc4c(cc3C(OC3OC5COC(C)OC5C(O)C3O)C3COC(=O)C23)OCO4)cc(OC)c1O (centres undefined) + Cc1[nH]c2ccc(F)cc2c1-c1nc2c3cccnc3c3ncccc3c2[nH]1
- IC50 (second compound 0.0316 µM): 317 nM
- IC50 (second compound 0.1 µM): 266 nM
- IC50 (second compound 0.316 µM): 650 nM
- IC50 (second compound 1 µM): 403 nM
- IC50 (second compound 3.16 µM): 344 nM
- IC50 (second compound 10 µM): 344 nM
- viability, T/C [1]: 89.3%
- viability, T/C (second compound 0.0316 µM, first compound 0.1 µM): 63%
- viability, T/C [2]: 43.9%
- viability, T/C (second compound 0.0316 µM, first compound 1 µM): 43%
- viability, T/C (second compound 0.0316 µM, first compound 3.16 µM): 29.5%
- viability, T/C (second compound 0.0316 µM, first compound 10 µM): 12.7%
- viability, T/C [3]: 92.3%
- viability, T/C (second compound 0.1 µM, first compound 0.1 µM): 68.7%
- viability, T/C [4]: 37.5%
- viability, T/C (second compound 0.1 µM, first compound 1 µM): 42.1%
- viability, T/C (second compound 0.1 µM, first compound 3.16 µM): 24%
- viability, T/C (second compound 0.1 µM, first compound 10 µM): 12.5%
- viability, T/C [5]: 86.1%
- viability, T/C (second compound 0.316 µM, first compound 0.1 µM): 97.7%
- viability, T/C [6]: 52.9%
- viability, T/C (second compound 0.316 µM, first compound 1 µM): 44.4%
- viability, T/C (second compound 0.316 µM, first compound 3.16 µM): 29.4%
- viability, T/C (second compound 0.316 µM, first compound 10 µM): 13%
- viability, T/C [7]: 89.6%
- viability, T/C (second compound 1 µM, first compound 0.1 µM): 67.7%
- viability, T/C [8]: 47.4%
- viability, T/C (second compound 1 µM, first compound 1 µM): 44.5%
- viability, T/C (second compound 1 µM, first compound 3.16 µM): 24.9%
- viability, T/C (second compound 1 µM, first compound 10 µM): 15.1%
- viability, T/C [9]: 77.3%
- viability, T/C (second compound 3.16 µM, first compound 0.1 µM): 65.7%
- viability, T/C [10]: 43.6%
- viability, T/C (second compound 3.16 µM, first compound 1 µM): 42.8%
- viability, T/C (second compound 3.16 µM, first compound 3.16 µM): 28.7%
- viability, T/C (second compound 3.16 µM, first compound 10 µM): 13%
- viability, T/C [11]: 96.2%
- viability, T/C (second compound 10 µM, first compound 0.1 µM): 69.9%
- viability, T/C [12]: 44%
- viability, T/C (second compound 10 µM, first compound 1 µM): 44.8%
- viability, T/C (second compound 10 µM, first compound 3.16 µM): 24.9%
- viability, T/C (second compound 10 µM, first compound 10 µM): 13.2%

Structure (SMILES): Cc1[nH]c2ccccc2c1CCNCc1ccc(/C=C/C(=O)NO)cc1 + Cc1cnc(CNC(=O)c2c(=O)c3ccc(N4CCCN(C)CC4)nc3n3c2sc2ccccc23)cn1
- IC50 (second compound 0.0316 µM): 94 nM
- IC50 (second compound 0.1 µM): 39.2 nM
- IC50 (second compound 0.316 µM): 11 nM
- IC50 (second compound 1 µM): < 0.999 nM
- IC50 (second compound 3.16 µM): < 0.999 nM
- IC50 (second compound 10 µM): < 0.999 nM
- viability, T/C (second compound 0.0316 µM, first compound 0.000999 µM): 99.4%
- viability, T/C (second compound 0.0316 µM, first compound 0.00316 µM): 74.4%
- viability, T/C (second compound 0.0316 µM, first compound 0.00999 µM): 85.6%
- viability, T/C [1]: 60.5%
- viability, T/C (second compound 0.0316 µM, first compound 0.0999 µM): 57.5%
- viability, T/C [2]: 12.1%
- viability, T/C (second compound 0.1 µM, first compound 0.000999 µM): 74.5%
- viability, T/C (second compound 0.1 µM, first compound 0.00316 µM): 89.6%
- viability, T/C (second compound 0.1 µM, first compound 0.00999 µM): 49.4%
- viability, T/C [3]: 51.7%
- viability, T/C (second compound 0.1 µM, first compound 0.0999 µM): 44.3%
- viability, T/C [4]: 9.46%
- viability, T/C (second compound 0.316 µM, first compound 0.000999 µM): 63.3%
- viability, T/C (second compound 0.316 µM, first compound 0.00316 µM): 59.6%
- viability, T/C (second compound 0.316 µM, first compound 0.00999 µM): 53.5%
- viability, T/C [5]: 35.3%
- viability, T/C (second compound 0.316 µM, first compound 0.0999 µM): 27.2%
- viability, T/C [6]: 6.34%
- viability, T/C (second compound 1 µM, first compound 0.000999 µM): 44.6%
- viability, T/C (second compound 1 µM, first compound 0.00316 µM): 52.6%
- viability, T/C (second compound 1 µM, first compound 0.00999 µM): 45.4%
- viability, T/C [7]: 30.7%
- viability, T/C (second compound 1 µM, first compound 0.0999 µM): 23.8%
- viability, T/C [8]: 0.94%
- viability, T/C (second compound 3.16 µM, first compound 0.000999 µM): 47.2%
- viability, T/C (second compound 3.16 µM, first compound 0.00316 µM): 39.2%
- viability, T/C (second compound 3.16 µM, first compound 0.00999 µM): 45%
- viability, T/C [9]: 33.1%
- viability, T/C (second compound 3.16 µM, first compound 0.0999 µM): 14%
- viability, T/C [10]: 0.27%
- viability, T/C (second compound 10 µM, first compound 0.000999 µM): 36.2%
- viability, T/C (second compound 10 µM, first compound 0.00316 µM): 37.5%
- viability, T/C (second compound 10 µM, first compound 0.00999 µM): 32.5%
- viability, T/C [11]: 26.5%
- viability, T/C (second compound 10 µM, first compound 0.0999 µM): 11.1%
- viability, T/C [12]: 0.69%
